What was measured:
[1] = system: activated rheumatoid arthritis; test: clinical examination and patient report after four weeks of intensive therapy; assay type: in vivo, human; settings: four weeks after start of therapy
Experimental: Patient, weight 59 kg. Patient with an acute progression of rheumatoid arthritis and damage to the joints DIP-R3, PIP-R3 and PIP-R4. The patient was examined twice: the current examination as well as four weeks before the current examination. An intensive therapy using Infliximab® was administered upon the diagnosis of an activated rheumatoid arthritis four weeks before the current examination.

[2] = system: activated rheumatoid arthritis; test: activity value AKT from ICG fluorescence imaging of both hands, two examinations four weeks apart; assay type: in vivo, human; settings: for activity value AKT: current examination vs four weeks before, values less than 1 indicate a decrease in disease activity
Experimental: A correction factor (CF) is determined after the calculation of the average AUCRef value above the fingernails. The quotient of the mean AUCRef value and the correction factor (CF) should result in a reference factor (RF) with a value of 100. CF=mean AUCRef/100(RF) 100(RF)=mean AUCRef/CF
Each of the obtained 28 AUC values of the interphalangeal articulations of the hands is processed by mathematical correlation. By dividing the AUC values by CF, corrected AUC values (AUCcorr) are obtained for the ROI above the respective interphalangeal articulations of the hands. AUCcorr=AUC/CF
The inventive process is further characterized by the layout of a method that allows the comparison of different examinations on the same patient. This method should compensate the different levels of the fluorescence signal intensity that result from the variable pharmacokinetics of ICG. The correction factor (CF) is calculated for each measurement leading to the formation of the signal intensity curve. Any number or any type of examinations can be assigned to one another by means of the CF of the ROI above the fingernails. Due to the division of the AUCcorr values from an arbitrary examination by CF, they can be directly compared with other AUCcorr values from previous examinations. The equation for calculating an arbitrary examination n is as follows: AUCcorr(n)=AUC(n)/CF(n)
The value AKT for the time-dependent disease activity results from the possibility of direct comparability of the corrected AUC values. The formula for calculating the activity value AKT of any two examinations over time is as follows: AKT=AUCcorr(n)/AUCcorr(n-1)
Values greater than 1 point out an increasing disease activity, respectively a deterioration of the result, whereas values less than 1 indicate an enhancement of the result, respectively a decrease in disease activity.
Methods and implementation: Intravenous injection of indocyanine green (ICG pulsion) at a dose of 0.2 mg/kg. Bolus injection for about 5 s, the measurement time 0 corresponds to the termination of the Injection. Measuring device: simultaneous measurement of both the hands, illumination surface about 20 cm×30 cm, LEDs, excitation wavelength of 775 nm, detection >800 nm (2 long-pass interference filters, each of whose λ50%=800 nm), iCCD camera with standard lens (water/Peltier-type cooling).
Data collection (image capture) for both the hands up to 10 minutes after the injection with a cycle time of 3 s (20 frames/min). […]
The activity values AKT are calculated by dividing each of the corrected results of the […] examination by each of the corresponding corrected results of the second examination respectively.

Infliximab [Infliximab®]
subjective perception of the disease (morning stiffness, pain sensations) ([1]; patient report): improvement in the subjective perception of the disease
clinical examination result (inflammation of the diseased joints) ([1]; patient): essentially unchanged result with only a low-level decline in the inflammation of the diseased joints
activity value AKT ([2]; joint DIP-R3): 0.71
activity value AKT ([2]; joint PIP-R3): 0.65
activity value AKT ([2]; joint printed PIP-84): 0.911
effectiveness of the ongoing intensified therapy ([2]; patient, after four weeks of therapy): could be quantitatively demonstrated just after four weeks

Reference: patent US8750968B2, “Device and procedure for the diagnosis or diagnostic preparation and/or therapy monitoring of inflammatory diseases such as rheumatoid arthritis” (MIVENION GmbH, priority 2007, dated 2014)
